Source: paper PMC5338263, “GS-5734 and its parent nucleoside analog inhibit Filo-, Pneumo-, and Paramyxoviruses” (Scientific Reports, 2017)
“Also recorded” adds a separate entry of the source. Like-named read-outs stand apart in the source and are kept apart here.

Assays:
[1] = test system: OHFV Bogoluvovska (Omsk Hemorrhagic Fever virus); test: in vitro; details: human
Arena = test: Potency by virus family (Fig. 2), Arena; type: cell-based; details: read-out: potency class (EC50)
[2] = test system: reporter and wild-type filo-, pneumo-, and paramyxoviruses; test: organism not typed; details: read-out: EC50 values (range over viruses)
[3] = test system: KFDV P9605 (Kyasanur Forest Disease virus); test: in vitro; details: human
HeV 1996 [4] = test: microbe, parasite or virus in culture; details: Henipavirus hendraense, HeLa
Pneumo = test: Potency by virus family (Fig. 2), Pneumo; type: cell-based; details: read-out: potency class (EC50)
[5] = test system: TBEV Hypr (Tick-borne Encephalitis virus); test: in vitro; details: human
[6] = test system: LASV Josiah (Lassa virus); test: in vitro; details: human
HeV 1996 (Hendra virus) [7] = test: in vitro; details: human
[8] = test system: AHFV 200300001 (Alkhurma Hemorrhagic Fever virus); test: in vitro; details: human
[9] = test system: MARV Rec. Bat371-Gluc (Marburg virus); test: in vitro; details: human
NiV B-2004 [10] = test system: NiV B-2004
MARV Rec. Bat371-Gluc [11] = test: organism not typed; details: Huh-7
Filo (filoviruses) = test: organism not typed; type: cell-based; details: read-out: potency class (EC50)
NiV minigenome = test: cells; type: cell-based, Nipah virus
MARV Rec. Bat371-Gluc [12] = test system: MARV Rec. Bat371-Gluc
NiV B-2004 (Nipah virus) = test: in vitro; details: human
Ebola virus = details: human, in vivo; cited from earlier work
[13] = Cell viability assay (CellTiter-Glo 2.0), macrophages; details: human, uninfected peripheral blood macrophages (Mϕ)
EBOV Rec. Mayinga-GFP [14] = test: microbe, parasite or virus in culture; details: Zaire ebolavirus, Huh-7
HeV 1996 [15] = test system: HeV 1996
CCHF Rec. IbAr 10200 = test: organism not typed; type: cell-based, Crimean Congo Hemorrhagic Fever virus
[16] = test system: ANDV Chile 9717869 (Andes virus); test: in vitro; details: human
Corona (coronaviruses) = details: cited from earlier work
[17] = test system: reporter and wild-type filo-, pneumo-, and paramyxoviruses
TBEV Hypr = test: microbe, parasite or virus in culture; details: Tick-borne encephalitis virus, A549
Bunya = test: Potency by virus family (Fig. 2), Bunya; type: cell-based; details: read-out: potency class (EC50)
[18] = test system: MV EZ vaccine (Measles virus); test: in vitro; details: human
SARS-CoV = details: cited from earlier work
[19] = test system: recombinant reporter-expressing NiV, EBOV, and Marburg viruses (MARV); test: microbe, parasite or virus in culture; type: cell-based; details: Zaire ebolavirus, read-out: EC50 values (range over viruses)
WNV = details: cited from earlier work
EBOV Rec. Mayinga-GFP [20] = test system: EBOV Rec. Mayinga-GFP
hPIV3 = details: cited from earlier work
NiV B-2004 [21] = test: microbe, parasite or virus in culture; details: Henipavirus nipahense, HeLa
HeV 1996 (Hendra virus) [22] = test: in vitro; details: human; remark: listed apart in the source
hMPV Rec. CAN97-83-GFP = test: microbe, parasite or virus in culture; type: cell-based; details: human metapneumovirus, Vero
[23] = Cell viability assay (CellTiter-Glo 2.0), 293T/17; details: human, uninfected 293T/17 cells
EBOV wt Makona = test: microbe, parasite or virus in culture; type: cell-based, Ebola virus; details: Zaire ebolavirus, Huh-7
MV, hPIV3, hMPV, and RSV = test: organism not typed; type: cell-based; details: read-out: EC50 values (range over viruses)

Which selectivity ratio [1] does the source give for `CCC(CC)COC(=O)[C@H](C)N[P@](=O)(OC[C@H]1O[C@@](C#N)(c2ccc3c(N)ncnn23)[C@H](O)[C@@H]1O)Oc1ccccc1` [GS-5734] here?
Its selectivity ratio is 8.3.

What about the EC50 (Arena) of the same compound?
Its EC50 is greater than 4000 nM.

What about the EC50 [2] of the same compound?
Its EC50 is 3 to 790 nM.

What about the selectivity ratio [3] of the same compound?
The selectivity ratio was 5.6.

And the EC50 (HeV 1996 [4])?
Its EC50 is 54.8 ± 1.3 nM.

What about the EC90 (HeV 1996 [4]) of the same compound?
The EC90 was 117 nM.

What about the EC50 (Pneumo) of the same compound?
The EC50 was less than 100 nM.

And the selectivity ratio [5]?
Its selectivity ratio is 4.8.

What about the EC50 (EBOV Rec. Mayinga-Gluc) of the same compound?
Its EC50 is 21 nM.

And the selectivity ratio [6]?
The selectivity ratio was 2.2.

What about the selectivity ratio (HeV 1996 (Hendra virus) [7]) of the same compound?
The selectivity ratio was 150.

And the selectivity ratio [8]?
Its selectivity ratio is 2.4.

And the selectivity ratio [9]?
Its selectivity ratio is 526.

And the EC50 (NiV B-2004 [10])?
The EC50 was 32 nM.

And the EC50 (MARV Rec. Bat371-Gluc [11])?
The EC50 was 19.3 nM.

What about the EC90 (MARV Rec. Bat371-Gluc [11]) of the same compound?
Its EC90 is 52 nM.

And the EC50 (MARV Rec. Bat371-GFP)?
Its EC50 is 14 nM.

What about the EC50 (Filo (filoviruses)) of the same compound?
The EC50 was less than 100 nM.

And the EC50 (NiV minigenome)?
Its EC50 is “sub-micromolar range”.

What about the EC50 (NiV minigenome; Henipavirus nipahense, HeLa, 48 h) of the same compound?
Its EC50 is 49 nM.

What about the EC50 (MARV Rec. Bat371-Gluc [12]) of the same compound?
The EC50 was 19 nM.

And the selectivity ratio (NiV B-2004 (Nipah virus))?
The selectivity ratio was 259.

What about the EC50 (MV Rec. rMV^EZGFP(3)) of the same compound?
The EC50 was 37 nM.

And the survival of patients (Ebola virus)?
The survival of patients was “both of whom survived”.

And the CC50 at 72 h [13]?
Its CC50 at 72 h is 2000 nM.

And the EC50 (EBOV Rec. Mayinga-GFP [14])?
Its EC50 is 66 nM.

What about the EC90 (EBOV Rec. Mayinga-GFP [14]) of the same compound?
Its EC90 is 203 nM.

And the EC50 (HeV 1996 [15])?
Its EC50 is 55 nM.

What about the EC50 (CCHF Rec. IbAr 10200) of the same compound?
Its EC50 is “minimal to no antiviral activity; also recorded: No inhibition”.

What about the EC50 (CCHF Rec. IbAr 10200; Huh-7) of the same compound?
The EC50 was greater than 10000 nM.

What about the EC50 (RSV Rec. rgRSV224 (A2)) of the same compound?
The EC50 was 21 nM.

And the selectivity ratio [16]?
The selectivity ratio was 1.4.

What about the “activity in cell-based antiviral assays” value (Corona (coronaviruses)) of the same compound?
Its value is “shown activity”.

What about the EC50 (AHFV 200300001) of the same compound?
The EC50 was 4200 nM.

What about the “EC50 lower than the 50% cytotoxic concentrations” value [17] of the same compound?
The value was no less than 150 fold.

What about the “higher antiviral potency relative to Nuc” value [17] of the same compound?
Its value is 10 to 100 fold.

What about the EC90 (TBEV Hypr) of the same compound?
The EC90 was 3500 nM.

What about the EC50 (Bunya) of the same compound?
Its EC50 is greater than 4000 nM.

Which results are given for `N#C[C@@]1(c2ccc3c(N)ncnn23)O[C@H](CO)[C@@H](O)[C@H]1O` [Nuc]?
selectivity ratio [18]: 25; antiviral activity (active or not) (SARS-CoV): shown to have activity; EC50 [19]: 1000 to 3000 nM; antiviral activity (active or not) (WNV): not; EC50 (EBOV Rec. Mayinga-GFP [20]): 1600 nM; EC50 (MV EZ vaccine): 2000 nM; antiviral activity (active or not) (hPIV3): shown to have activity; EC50 (MARV Rec. Bat371-GFP): 1900 nM; EC90 (NiV B-2004 [21]): 2200 nM; selectivity ratio (HeV 1996 (Hendra virus) [22]): 50; EC50 (hMPV Rec. CAN97-83-GFP): 730 nM; EC90 (hMPV Rec. CAN97-83-GFP): 1700 nM; EC50 (MV Rec. rMV^EZGFP(3)): 1000 nM; EC50 (MuV IA 2006): 9700 nM; EC50 (EBOV Rec. Mayinga-GFP [14]): 1610 ± 120 nM; EC90 (EBOV Rec. Mayinga-GFP [14]): 6700 nM; CC50 at 72 h [23]: > 50000 nM; EC50 (CCHF Rec. IbAr 10200): little to no antiviral activity; also recorded: No inhibition; EC50 (CCHF Rec. IbAr 10200; Huh-7): > 50000 nM; EC50 (EBOV wt Makona): 1610 ± 420 nM; EC50 (MV, hPIV3, hMPV, and RSV): 500 to 2000 nM; EC50 lower than the 50% cytotoxic concentrations [17]: at least 16 fold; EC50 (TBEV Hypr): 51200 nM; EC90 (TBEV Hypr): > 150000 nM
